Results reported in PubChem BioAssay (NCI).
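Values below derive from 48-hour exposures of cells grown in 96-well plates, with endpoints linearly interpolated between the two concentrations bracketing the appropriate inhibition level. GI50 is the concentration that inhibits growth by half. At the TGI there is no net growth.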

Assays:
Test in all cases: growth of human tumour cells (NCI), 48 h
786-0 renal = system: 786-0 renal
A498 renal = system: A498 renal
A549 NSCLC = system: A549 NSCLC
ACHN renal = system: ACHN renal
BT-549 breast = system: BT-549 breast
CAKI-1 renal = system: CAKI-1 renal
CCRF-CEM leukemia = system: CCRF-CEM leukemia
COLO 205 colon = system: COLO 205 colon
DU-145 prostate = system: DU-145 prostate
EKVX NSCLC = system: EKVX NSCLC
HCT-116 colon = system: HCT-116 colon
HCT-15 colon = system: HCT-15 colon
HL-60(TB) leukemia = system: HL-60(TB) leukemia
HOP-62 NSCLC = system: HOP-62 NSCLC
HOP-92 NSCLC = system: HOP-92 NSCLC
HS 578T breast = system: HS 578T breast
HT29 colon = system: HT29 colon
IGROV1 ovarian = system: IGROV1 ovarian
K-562 leukemia = system: K-562 leukemia
KM12 colon = system: KM12 colon
LOX IMVI melanoma = system: LOX IMVI melanoma
M14 melanoma = system: M14 melanoma
MCF7 breast = system: MCF7 breast
MDA-MB-231 breast = system: MDA-MB-231 breast
MDA-MB-435 = system: MDA-MB-435
MOLT-4 leukemia = system: MOLT-4 leukemia
NCI-H226 lung = system: NCI-H226 lung
NCI-H23 lung = system: NCI-H23 lung
NCI-H460 lung = system: NCI-H460 lung
NCI/ADR-RES ovarian = system: NCI/ADR-RES ovarian
OVCAR-3 ovarian = system: OVCAR-3 ovarian
OVCAR-4 ovarian = system: OVCAR-4 ovarian
OVCAR-5 ovarian = system: OVCAR-5 ovarian
OVCAR-8 ovarian = system: OVCAR-8 ovarian
PC-3 prostate = system: PC-3 prostate
RPMI-8226 leukemia = system: RPMI-8226 leukemia
RXF 393 renal = system: RXF 393 renal
SF-268 CNS = system: SF-268 CNS
SF-295 CNS = system: SF-295 CNS
SF-539 CNS = system: SF-539 CNS
SK-MEL-2 melanoma = system: SK-MEL-2 melanoma
SK-MEL-28 melanoma = system: SK-MEL-28 melanoma
SK-MEL-5 melanoma = system: SK-MEL-5 melanoma
SK-OV-3 ovarian = system: SK-OV-3 ovarian
SN12C renal = system: SN12C renal
SNB-19 CNS = system: SNB-19 CNS
SNB-75 CNS = system: SNB-75 CNS
SW-620 colon = system: SW-620 colon
T-47D breast = system: T-47D breast
TK-10 renal = system: TK-10 renal
U251 CNS = system: U251 CNS
UACC-257 melanoma = system: UACC-257 melanoma
UACC-62 melanoma = system: UACC-62 melanoma

Compound: CC1=C2[C@H]3OC(=O)[C@@H](C)[C@@H]3CC[C@@]2(C)C=CC1=O
- GI50 (786-0 renal): > 100 µM
- TGI (786-0 renal): > 100 µM
- GI50 (A498 renal): > 100 µM
- TGI (A498 renal): > 100 µM
- GI50 (A549 NSCLC): > 100 µM
- TGI (A549 NSCLC): > 100 µM
- GI50 (ACHN renal): > 100 µM
- TGI (ACHN renal): > 100 µM
- GI50 (BT-549 breast): > 100 µM
- TGI (BT-549 breast): > 100 µM
- GI50 (CAKI-1 renal): > 100 µM
- TGI (CAKI-1 renal): > 100 µM
- GI50 (CCRF-CEM leukemia): > 100 µM
- TGI (CCRF-CEM leukemia): > 100 µM
- GI50 (COLO 205 colon): > 100 µM
- TGI (COLO 205 colon): > 100 µM
- GI50 (DU-145 prostate): > 100 µM
- TGI (DU-145 prostate): > 100 µM
- GI50 (EKVX NSCLC): > 100 µM
- TGI (EKVX NSCLC): > 100 µM
- GI50 (HCT-116 colon): > 100 µM
- TGI (HCT-116 colon): > 100 µM
- GI50 (HCT-15 colon): > 100 µM
- TGI (HCT-15 colon): > 100 µM
- GI50 (HL-60(TB) leukemia): > 100 µM
- TGI (HL-60(TB) leukemia): > 100 µM
- GI50 (HOP-62 NSCLC): > 100 µM
- TGI (HOP-62 NSCLC): > 100 µM
- GI50 (HOP-92 NSCLC): > 100 µM
- TGI (HOP-92 NSCLC): > 100 µM
- GI50 (HS 578T breast): > 100 µM
- TGI (HS 578T breast): > 100 µM
- GI50 (HT29 colon): > 100 µM
- TGI (HT29 colon): > 100 µM
- GI50 (IGROV1 ovarian): > 100 µM
- TGI (IGROV1 ovarian): > 100 µM
- GI50 (K-562 leukemia): > 100 µM
- TGI (K-562 leukemia): > 100 µM
- GI50 (KM12 colon): > 100 µM
- TGI (KM12 colon): > 100 µM
- GI50 (LOX IMVI melanoma): > 100 µM
- TGI (LOX IMVI melanoma): > 100 µM
- GI50 (M14 melanoma): > 100 µM
- TGI (M14 melanoma): > 100 µM
- GI50 (MCF7 breast): > 100 µM
- TGI (MCF7 breast): > 100 µM
- GI50 (MDA-MB-231 breast): > 100 µM
- TGI (MDA-MB-231 breast): > 100 µM
- GI50 (MDA-MB-435): > 100 µM
- TGI (MDA-MB-435): > 100 µM
- GI50 (MOLT-4 leukemia): > 100 µM
- TGI (MOLT-4 leukemia): > 100 µM
- GI50 (NCI-H226 lung): > 100 µM
- TGI (NCI-H226 lung): > 100 µM
- GI50 (NCI-H23 lung): > 100 µM
- TGI (NCI-H23 lung): > 100 µM
- GI50 (NCI-H460 lung): > 100 µM
- TGI (NCI-H460 lung): > 100 µM
- GI50 (NCI/ADR-RES ovarian): > 100 µM
- TGI (NCI/ADR-RES ovarian): > 100 µM
- GI50 (OVCAR-3 ovarian): > 100 µM
- TGI (OVCAR-3 ovarian): > 100 µM
- GI50 (OVCAR-4 ovarian): > 100 µM
- TGI (OVCAR-4 ovarian): > 100 µM
- GI50 (OVCAR-5 ovarian): > 100 µM
- TGI (OVCAR-5 ovarian): > 100 µM
- GI50 (OVCAR-8 ovarian): > 100 µM
- TGI (OVCAR-8 ovarian): > 100 µM
- GI50 (PC-3 prostate): > 100 µM
- TGI (PC-3 prostate): > 100 µM
- GI50 (RPMI-8226 leukemia): > 100 µM
- TGI (RPMI-8226 leukemia): > 100 µM
- GI50 (RXF 393 renal): > 100 µM
- TGI (RXF 393 renal): > 100 µM
- GI50 (SF-268 CNS): > 100 µM
- TGI (SF-268 CNS): > 100 µM
- GI50 (SF-295 CNS): > 100 µM
- TGI (SF-295 CNS): > 100 µM
- GI50 (SF-539 CNS): > 100 µM
- TGI (SF-539 CNS): > 100 µM
- GI50 (SK-MEL-2 melanoma): > 100 µM
- TGI (SK-MEL-2 melanoma): > 100 µM
- GI50 (SK-MEL-28 melanoma): > 100 µM
- TGI (SK-MEL-28 melanoma): > 100 µM
- GI50 (SK-MEL-5 melanoma): > 100 µM
- TGI (SK-MEL-5 melanoma): > 100 µM
- GI50 (SK-OV-3 ovarian): > 100 µM
- TGI (SK-OV-3 ovarian): > 100 µM
- GI50 (SN12C renal): > 100 µM
- TGI (SN12C renal): > 100 µM
- GI50 (SNB-19 CNS): > 100 µM
- TGI (SNB-19 CNS): > 100 µM
- GI50 (SNB-75 CNS): > 100 µM
- TGI (SNB-75 CNS): > 100 µM
- GI50 (SW-620 colon): > 100 µM
- TGI (SW-620 colon): > 100 µM
- GI50 (T-47D breast): > 100 µM
- TGI (T-47D breast): > 100 µM
- GI50 (TK-10 renal): > 100 µM
- TGI (TK-10 renal): > 100 µM
- GI50 (U251 CNS): > 100 µM
- TGI (U251 CNS): > 100 µM
- GI50 (UACC-257 melanoma): > 100 µM
- TGI (UACC-257 melanoma): > 100 µM
- GI50 (UACC-62 melanoma): > 100 µM
- TGI (UACC-62 melanoma): > 100 µM
